Measured values: ChEMBL document CHEMBL1141038, “Identification of ortho-amino benzamides and nicotinamides as MCHr1 antagonists” (Bioorg Med Chem Lett, 2005)

Experiments:
[1] = biological target: T1, Melanin-concentrating hormone receptor 1 (Homo sapiens, UniProt Q99705); test: Inhibitory activity towards melanin-concentrating hormone receptor 1 in IMR32 cells; assay type: cell-based, IMR-32
[2] = biological target: T1, Melanin-concentrating hormone receptor 1; test: Inhibitory concentration against MCH1R IMR32 cells in FLIPR-based assay; assay type: cell-based, IMR-32
[3] = Area under the curve in plasma of DIO mice after 10 mg/kg oral dose; assay type: ADME, organism-based; design: dose 10 mg/kg, route oral; conditions: mouse, in vivo
[4] = Plasma Cmax in DIO mice after 10 mg/kg oral dose; assay type: ADME, organism-based; design: dose 10 mg/kg, route oral; conditions: mouse
[5] = Area under the curve in brain of DIO mice after 10 mg/kg oral dose; assay type: ADME, organism-based; design: dose 10 mg/kg, route oral; conditions: mouse, in vivo
[6] = Brain half life in DIO mice after 10 mg/kg oral dose; assay type: ADME, organism-based; design: dose 10 mg/kg, route oral; conditions: mouse
[7] = Plasma half life in DIO mice after 10 mg/kg oral dose; assay type: ADME, organism-based; design: dose 10 mg/kg, route oral; conditions: mouse
[8] = Brain Cmax in DIO mice after 10 mg/kg oral dose; assay type: ADME, organism-based; design: dose 10 mg/kg, route oral; conditions: mouse
[9] = Brain/plasma in DIO mice after 10 mg/kg oral dose; assay type: ADME, organism-based; design: dose 10 mg/kg, route oral; conditions: mouse, read-out: AUC
[10] = Plasma area under curve in DIO mice after 10 mg/kg oral dose; assay type: ADME, organism-based; design: dose 10 mg/kg, route oral; conditions: mouse, in vivo
[11] = Brain/plasma area under curve in DIO mice after 10 mg/kg oral dose; assay type: ADME, organism-based; design: dose 10 mg/kg, route oral; conditions: mouse, read-out: AUC
[12] = Plasma peak concentration in DIO mice after 10 mg/kg oral dose; assay type: ADME, organism-based; design: dose 10 mg/kg, route oral; conditions: mouse

T1 sequence (Q99705 whole entry): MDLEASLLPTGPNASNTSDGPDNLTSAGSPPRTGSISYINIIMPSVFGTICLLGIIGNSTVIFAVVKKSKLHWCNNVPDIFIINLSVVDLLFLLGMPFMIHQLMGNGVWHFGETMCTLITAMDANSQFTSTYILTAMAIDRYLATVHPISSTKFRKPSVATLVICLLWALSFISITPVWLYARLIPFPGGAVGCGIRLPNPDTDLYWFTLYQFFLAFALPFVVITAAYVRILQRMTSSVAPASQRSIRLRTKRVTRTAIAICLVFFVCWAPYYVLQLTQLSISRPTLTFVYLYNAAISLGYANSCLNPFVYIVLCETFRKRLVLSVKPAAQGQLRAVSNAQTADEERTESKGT

Q: What does the source list for `O=C(NC1CCN(Cc2ccc(Cl)cc2)CC1)c1cc(Cl)cnc1NCc1ccco1`?
A: IC50 [1]: 60 nM; IC50 [2]: 1220 nM

Q: Which IC50 [1] does the source give for `O=C(NC1CCN(Cc2ccc3c(c2)OCO3)CC1)c1cc(Cl)cnc1NCC1CC1` here?
A: The IC50 was 20 nM.

Q: What about the IC50 [2] of the same compound?
A: The IC50 was 20 nM.

Q: With `COc1ccc(NCc2ncc[nH]2)c(C(=O)NC2CCN(Cc3ccc4c(c3)OCO4)CC2)c1` as the compound, how does the IC50 [1] read?
A: Its IC50 is 70 nM.

Q: What about the IC50 [2] of the same compound?
A: The IC50 was 220 nM.

Q: For `CS(=O)(=O)Nc1ccc(Cl)cc1C(=O)NC1CCN(Cc2ccc3c(c2)OCO3)CC1`, which IC50 [1] is on record?
A: The IC50 was 560 nM.

Q: Which results are given for `CC(=O)c1ccc(CN2CCC(NC(=O)c3cc(Cl)ccc3NCc3c[nH]cn3)CC2)cc1`?
A: IC50 [1]: 10 nM; IC50 [2]: 240 nM

Q: Which results are given for `CC(C)OCCNc1ncc(Cl)cc1C(=O)NC1CCN(Cc2ccc3c(c2)OCO3)CC1`?
A: IC50 [1]: 10 nM; IC50 [2]: 20 nM; AUC [3]: 677 ng·h/mL; Cmax [4]: 283 ng/mL; AUC [5]: 570 ng·h/mL; half-life [6]: 1.4 h; half-life [7]: 2.3 h; Cmax [8]: 276 ng/mL; Kp [9]: 0.84

Q: Which IC50 [1] does the source give for `O=C(NC1CCN(Cc2ccc3c(c2)OCO3)CC1)c1cc(Cl)cnc1Cl` here?
A: Its IC50 is 2010 nM.

Q: With `O=C(NC1CCN(Cc2ccc3c(c2)OCO3)CC1)c1cc(Cl)ccc1NCc1nccs1` as the compound, how does the AUC [10] read?
A: The AUC was 4100 ng·h/mL.

Q: And the IC50 [1]?
A: Its IC50 is 2 nM.

Q: What about the Kp [11] of the same compound?
A: Its Kp is 0.7.

Q: And the IC50 [2]?
A: Its IC50 is 16 nM.

Q: And the Cmax [12]?
A: The Cmax was 2030 ng/mL.

Q: What about the half-life [6] of the same compound?
A: The half-life was 7.8 h.

Q: What about the half-life [7] of the same compound?
A: The half-life was 3.8 h.

Q: What about the Cmax [8] of the same compound?
A: Its Cmax is 814 ng/mL.

Q: With `O=C(NC1CCN(Cc2ccc3ccccc3c2)CC1)c1cc(Cl)ccc1NCc1nccs1` as the compound, how does the IC50 [1] read?
A: Its IC50 is 6 nM.

Q: And the IC50 [2]?
A: The IC50 was 40 nM.

Q: For `O=C(NC1CCN(Cc2ccc3c(c2)OCO3)CC1)c1cc(Cl)cnc1NC[C@H]1CCCO1`, which IC50 [1] is on record?
A: Its IC50 is 50 nM.

Q: And the IC50 [2]?
A: Its IC50 is 20 nM.

Q: Which IC50 [1] does the source give for `O=C(NC1CCN(Cc2ccc3c(c2)OCO3)CC1)c1cc(Cl)cnc1NC1CCC1` here?
A: The IC50 was 70 nM.

Q: And the IC50 [2]?
A: Its IC50 is 30 nM.

Q: With `COc1ccc(NS(C)(=O)=O)c(C(=O)NC2CCN(Cc3ccc4c(c3)OCO4)CC2)c1` as the compound, how does the IC50 [1] read?
A: The IC50 was 260 nM.

Q: Which IC50 [1] does the source give for `COc1ccc(CN2CCC(NC(=O)c3cc(Cl)cnc3NCC(C)C)CC2)cc1F` here?
A: Its IC50 is 160 nM.

Q: Which IC50 [1] does the source give for `COc1ccc(NCC2CC2)c(C(=O)NC2CCN(Cc3ccc4c(c3)OCO4)CC2)c1` here?
A: The IC50 was 10 nM.

Q: What about the IC50 [2] of the same compound?
A: The IC50 was 90 nM.

Q: With `COc1ccc(NCC2CCCCC2)c(C(=O)NC2CCN(Cc3ccc4c(c3)OCO4)CC2)c1` as the compound, how does the IC50 [1] read?
A: The IC50 was 50 nM.

Q: And the IC50 [2]?
A: The IC50 was 1060 nM.

Q: With `COc1ccc(CNc2ncc(Cl)cc2C(=O)NC2CCN(Cc3ccccc3)CC2)cc1` as the compound, how does the IC50 [1] read?
A: Its IC50 is 10 nM.

Q: What about the IC50 [2] of the same compound?
A: The IC50 was 30 nM.

Q: With `CC(C)OCCNc1ncc(-c2cccs2)cc1C(=O)NC1CCN(Cc2ccc3c(c2)OCO3)CC1` as the compound, how does the IC50 [1] read?
A: The IC50 was 190 nM.

Q: Which results are given for `COc1ccc(NCc2c[nH]cn2)c(C(=O)NC2CCN(Cc3ccc4ccccc4c3)CC2)c1`?
A: IC50 [1]: 390 nM; IC50 [2]: 1940 nM

Q: Which results are given for `CC(C)OCCCNc1ncc(Cl)cc1C(=O)NC1CCN(Cc2ccc3c(c2)OCO3)CC1`?
A: IC50 [1]: 7 nM; IC50 [2]: 60 nM

Q: For `O=C(NC1CCN(Cc2ccc(Cl)cc2)CC1)c1cc(Cl)cnc1NC1CCC1`, which IC50 [1] is on record?
A: Its IC50 is 1980 nM.

Q: With `O=C(NC1CCN(Cc2ccc3c(c2)OCO3)CC1)c1cc(Cl)cnc1NCc1cscn1` as the compound, how does the IC50 [1] read?
A: Its IC50 is 4 nM.

Q: What about the IC50 [2] of the same compound?
A: The IC50 was 8 nM.

Q: With `COc1ccc(NS(C)(=O)=O)c(C(=O)NC2CCN(Cc3ccc(Cl)cc3)CC2)c1` as the compound, how does the IC50 [1] read?
A: Its IC50 is 160 nM.

Q: With `O=C(NC1CCN(Cc2ccc3c(c2)OCO3)CC1)c1cc(Cl)ccc1O` as the compound, how does the IC50 [1] read?
A: Its IC50 is 80 nM.

Q: And the IC50 [2]?
A: The IC50 was 510 nM.

Q: Which results are given for `O=C(Nc1ccc(Cl)cc1C(=O)NC1CCN(Cc2ccc3c(c2)OCO3)CC1)c1ccccn1`?
A: IC50 [1]: 20 nM; IC50 [2]: 370 nM

Q: For `O=C(NC1CCN(Cc2ccc3c(c2)OCO3)CC1)c1cc(Cl)cnc1NCc1nccs1`, which IC50 [1] is on record?
A: The IC50 was 6 nM.

Q: What about the IC50 [2] of the same compound?
A: Its IC50 is 9 nM.

Q: With `COc1ccc(NC(=O)NC(C)C)c(C(=O)NC2CCN(Cc3ccc(Cl)cc3)CC2)c1` as the compound, how does the IC50 [1] read?
A: The IC50 was 220 nM.

Q: Which IC50 [1] does the source give for `Nc1ccc(Cl)cc1C(=O)NC1CCN(Cc2ccc3c(c2)OCO3)CC1` here?
A: The IC50 was 9 nM.

Q: What about the IC50 [2] of the same compound?
A: The IC50 was 200 nM.

Q: For `CC(C)Nc1ncc(Cl)cc1C(=O)NC1CCN(Cc2ccc3c(c2)CCO3)CC1`, which IC50 [1] is on record?
A: The IC50 was 70 nM.

Q: And the IC50 [2]?
A: Its IC50 is 70 nM.

Q: Which results are given for `COc1ccc(NCc2c[nH]cn2)c(C(=O)NC2CCN(Cc3ccc4c(c3)OCO4)CC2)c1`?
A: IC50 [1]: 20 nM; IC50 [2]: 50 nM

Q: For `CC(C)CNc1ncc(Cl)cc1C(=O)NC1CCN(Cc2ccc3c(c2)OCO3)CC1`, which IC50 [1] is on record?
A: Its IC50 is 20 nM.

Q: What about the IC50 [2] of the same compound?
A: The IC50 was 50 nM.

Q: Which results are given for `O=C(NC1CCN(Cc2ccc3c(c2)OCO3)CC1)c1cc(Cl)cnc1NCc1ncc[nH]1`?
A: IC50 [1]: 20 nM; IC50 [2]: 70 nM

Q: With `COc1ccc(NCc2cncn2C)c(C(=O)NC2CCN(Cc3ccc4c(c3)OCO4)CC2)c1` as the compound, how does the IC50 [1] read?
A: The IC50 was 90 nM.

Q: And the IC50 [2]?
A: Its IC50 is 100 nM.

Q: What does the source list for `CC(C)Nc1ncc(Cl)cc1C(=O)NC1CCN(Cc2ccc3c(c2)OCO3)CC1`?
A: IC50 [1]: 20 nM; IC50 [2]: 30 nM

Q: With `COc1ccc(NCC2CCOC2)c(C(=O)NC2CCN(Cc3ccc4c(c3)OCO4)CC2)c1` (stereo not drawn) as the compound, how does the IC50 [1] read?
A: Its IC50 is 20 nM.

Q: And the IC50 [2]?
A: The IC50 was 40 nM.

Q: For `O=C(NC1CCN(Cc2ccc3c(c2)OCO3)CC1)c1ccccc1NCc1c[nH]cn1`, which IC50 [1] is on record?
A: Its IC50 is 410 nM.

Q: With `O=C(NC1CCN(Cc2ccc3c(c2)OCO3)CC1)c1cc(Cl)cnc1NCc1cnc[nH]1` as the compound, how does the IC50 [1] read?
A: Its IC50 is 9 nM.

Q: And the IC50 [2]?
A: Its IC50 is 20 nM.

Q: For `O=C(NC1CCN(Cc2ccc(Cl)cc2)CC1)c1cc(Cl)cnc1NCC1CC1`, which IC50 [1] is on record?
A: Its IC50 is 410 nM.

Q: With `COc1ccc(NCc2c[nH]cn2)c(C(=O)NC2CCN(Cc3ccc4ncccc4c3)CC2)c1` as the compound, how does the IC50 [1] read?
A: Its IC50 is 70 nM.

Q: And the IC50 [2]?
A: The IC50 was 100 nM.

Q: Which IC50 [1] does the source give for `COc1ccc(NCc2cncnc2)c(C(=O)NC2CCN(Cc3ccc4c(c3)OCO4)CC2)c1` here?
A: The IC50 was 9 nM.

Q: And the IC50 [2]?
A: The IC50 was 70 nM.

Q: With `O=C(NC1CCN(Cc2ccc3c(c2)OCO3)CC1)c1cccc(Cl)c1` as the compound, how does the IC50 [1] read?
A: Its IC50 is 110 nM.

Q: For `CC(C)OCCNc1ncc(-c2ccncc2)cc1C(=O)NC1CCN(Cc2ccc3c(c2)OCO3)CC1`, which IC50 [1] is on record?
A: Its IC50 is 140 nM.

Q: With `CNc1ccc(Cl)cc1C(=O)NC1CCN(Cc2ccc3c(c2)OCO3)CC1` as the compound, how does the IC50 [1] read?
A: Its IC50 is 680 nM.

Q: With `COc1ccc(NCc2ccccn2)c(C(=O)NC2CCN(Cc3ccc4c(c3)OCO4)CC2)c1` as the compound, how does the IC50 [1] read?
A: The IC50 was 20 nM.

Q: What about the IC50 [2] of the same compound?
A: Its IC50 is 70 nM.

Q: With `O=C(NC1CCN(Cc2ccc3ncccc3c2)CC1)c1cc(Cl)ccc1NCc1nccs1` as the compound, how does the IC50 [1] read?
A: The IC50 was 20 nM.

Q: And the IC50 [2]?
A: Its IC50 is 30 nM.
